# Experiments:
# DEPTOR = biological target: T1, DEPTOR (Homo sapiens, UniProt Q8TB45); test: DEPTOR degradation; assay type: cell-based
# T1 construct: endogenous in cells
# Text: FIG. 7A-FIG. 7F depict exemplary assay data for compounds disclosed herein. […] FIG. 7E and FIG. 7F depict data showing the anti-tumor effect was blunted by further transfection of DEPTOR to over-express the protein.
# OPM2 = test: therapeutic index against OPM2 myeloma cell line; assay type: cell-based
# Text: (§1) FIG. 6A-FIG. 6D depict exemplary assay data for compounds disclosed herein. […] FIG. 6D highlights IC50 data for 3 g and Compound B (NSC126405).
# p21 expression = p21 expression immunoblot; assay type: cell-based
# Description: (§2) These were then studied in more detail. […] This was clearly shown for 4d, 4e, 4 g, and 3 g.
# (§3) The 8226 and MM1.S myeloma cell lines were purchased from ATCC. The cell lines were characterized by FISH analysis and shown to contain MAF/Ig translocations. Western blot confirmed a significant over-expression of DEPTOR protein. Both lines were tested for mycoplasma within the last 6 months and were negative. Western blot assay—Protein was extracted and separated by 12.5% SDS-PAGE as previously described (see new ref below). Proteins were transferred to polyvinylidene difluoride membranes and their expression was detected utilizing specific antibodies purchased from Cell Signaling (Beverly, Mass.).
# 8226 MM cell line = test: MTT cytotoxicity assay, 8226 MM cells
# Description: In mTORC1, mTOR phosphorylates the p70S6 kinase. Thus, a Western blot was used to test for induction of p70 phosphorylation in this secondary screen. Compounds were tested at 0.5, 1, and 2 uM with 6 hrs in vitro exposure. […] A summary of the p70 phosphorylation data from 4 separate experiments where derivatives were used at 0.5 uM, is shown in FIG. 3B. These first 8 derivatives were also screened for cytotoxicity against the same 8226 MM cell line in 48 hr MTT assays.
# P70 phosphorylation was measured in 8226 cells treated for 6 hrs. […] The structures and biological activity of all derivatives are shown in Tables 1-4, categorized by structural modification.
# The MTT assay was performed by seeding 1-2×10^4 target cells in 0.1 ml of complete media into wells of a 96 well microtiter plate. After incubation with compounds, the reduction of MTT to formazan by live cells was determined with a microplate ELISA reader equipped with a 570 nm filter.
# The induction of p70 phosphorylation by derivative compounds was determined by densitometry, comparing immunoblot signals of phosphorylated p70 vs total p70. This ratio was then compared to that resulting from parental compound B, with the latter ratio arbitrarily placed at ‘1’. The IC50 for MTT cytotoxicity was determined using a range of concentrations of derivatives. Percent apoptosis was enumerated by flow cytometry in drug-treated cultures by subtracting control apoptosis determined from DMSO-treated cultures.
# [1] = tested on: p70 phosphorylation (mTORC1 activity) in 8226 cells; test: p70 phosphorylation Western blot (TORC1 activity) in 8226 cells; assay type: cell-based; settings: as low as 0.25 uM, 6 hrs
# Description: In mTORC1, mTOR phosphorylates the p70S6 kinase.
# as §3
# 8226 myeloma tumors = test: subcutaneous xenograft tumor model of myeloma growth; assay type: in vivo, mice; settings: 20 mg/kg IP daily for 4 days
# Description: Peripheral blood was analyzed for white blood cell (WBC), hematocrit (HCT), hemoglobin concentration (HgI) and platelet count.
# Briefly, mice were challenged subcutaneously with 5×10^6 8226 cells and when myeloma tumors reached 500 mm^3, mice were treated with DMSO, compound B, or compound 3g (at 20 mg/kg) IP daily for 4 days. Tumor size (mean+/−SD, n=5) was assessed each day (FIG. 8A). *=different from control (DMSO), p<0.05, **=different from compound B, p<0.05. After 4 days of treatment, mice were sacrificed and peripheral blood analyzed for WBC, hematocrit (HCT), hemoglobin concentration (HgI) and platelet count (FIG. 8B). Data are % of control (determination in DMSO-Rx'd mice), mean+/−SD, n=5. *=different from DMSO control, p<0.05.
# 8226 cells = test: apoptosis assay (activated caspase 3, flow cytometry) in 8226 cells; assay type: cell-based; settings: 48 hrs
# Description: as §2
# To identify apoptotic cells, a phycoerythrin (PE)-conjugated antibody specific for activated caspase 3 (BD Biosciences) was used. For staining, 10^6 cells were washed with PB S and fixed and permeabilized with 0.5 ml cytofix/cytoperm solution. The cells were then incubated with a 1:5 dilution of PE-conjugated monoclonal anti-caspase 3 antibody for 30 mins and analyzed by flow cytometry.
# RAPTOR-silenced MM cells = test: MTT cytotoxicity in RAPTOR-silenced MM cells; assay type: cell-based; settings: 48 hrs
# Description: (§4) FIG. 5A-FIG. 5E depict exemplary assay data of compounds disclosed herein. […] Therapeutic indices (TIs) calculated as IC50 PBLs/IC50 for 8226 cells.
# (§5) To compare anti-myeloma efficacy to non-specific toxicity, each of these 5 active derivatives were compared to compound B in their ability to inhibit survival of 8226 MM cells versus normal peripheral blood lymphocytes (PBLs). In head-to-head experiments, IC50 values for each target were calculated and compared. […] These derivatives were also tested for their anti-MM cytotoxicity in isogenic lines with RAPTOR knockdown.
# The short hairpin RNAs (shRNA)/pLKO.1, targeting RAPTOR or a scrambled sequence (control) were obtained from Addgene. Lentivirus was produced by the UCLA Vector Core facility and stable cell lines were made by transducing cells with lentivirus and selecting in […].
# MM1.S MM cell line = test: MTT cytotoxicity assay, MM1.S cells; assay type: cell-based; settings: Homo sapiens, 48 hr
# Description: The MTT assay was performed by seeding 1-2×10^4 target cells in 0.1 ml of complete media into wells of a 96 well microtiter plate. After incubation with compounds, the reduction of MTT to formazan by live cells was determined with a microplate ELISA reader equipped with a 570 nm filter. Quadruplicate wells were run for each group and the SD of each group was always <5% of the mean.
# H929 = test: therapeutic index against H929 myeloma cell line; assay type: cell-based
# Text: as §1
# [2] = tested on: normal peripheral blood lymphocytes (PBLs); test: survival of normal peripheral blood lymphocytes versus 8226 MM cells; assay type: cell-based; settings: 48 hr assays
# Description: as §4, §5
# DEPTOR/mTOR binding = biological target: T2, DEPTOR/mTOR binding (Homo sapiens, UniProt Q8TB45); test: DEPTOR/mTOR co-immunoprecipitation in 8226 MM cells; assay type: cell-based
# T2 construct: Western blot confirmed a significant over-expression of DEPTOR protein; host or cells: 8226 multiple myeloma cells
# T2 sequence (Q8TB45 whole entry): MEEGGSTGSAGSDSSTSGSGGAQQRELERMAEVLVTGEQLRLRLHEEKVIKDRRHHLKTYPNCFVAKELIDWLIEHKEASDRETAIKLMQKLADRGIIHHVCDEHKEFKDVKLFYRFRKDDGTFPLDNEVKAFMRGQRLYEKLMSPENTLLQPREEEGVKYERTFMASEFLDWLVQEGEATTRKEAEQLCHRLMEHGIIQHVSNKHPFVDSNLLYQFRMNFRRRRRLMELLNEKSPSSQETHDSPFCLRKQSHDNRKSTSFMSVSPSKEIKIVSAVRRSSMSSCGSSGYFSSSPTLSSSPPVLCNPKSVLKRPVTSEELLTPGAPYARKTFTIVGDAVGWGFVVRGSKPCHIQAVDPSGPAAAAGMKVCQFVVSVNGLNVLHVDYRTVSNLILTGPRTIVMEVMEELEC
# T1 sequence (Q8TB45 whole entry): as above
structure (smiles),measurement,setting,value
"FC(F)(F)c1cccc(NN=C2C(Cl)=C(Cl)C(Cl)=C2Cl)c1 [compound 3g, 1-(Perchlorocyclopenta-2,4-dien-1-ylidene)-2-(3-(trifluoromethyl)phenyl)hydrazine]",degradation of DEPTOR,DEPTOR,induces the rapid proteasome-dependent degradation of DEPTOR
same,therapeutic index versus NSC126405,OPM2,enhanced therapeutic index
same,p21 expression compared to parent compound B,p21 expression,enhanced p21 expression
same,IC50,"8226 MM cell line; 48 h, read-out: MTT (IC50, uM) 8226",0.17 µM
same,anti-MM cytotoxicity in MTT assay compared to parent B,8226 MM cell line; 48 hr MTT,enhanced cytotoxic effects
same,p70 phosphorylation vs compound B at lower concentrations,[1],significantly more effective
same,anti-tumor efficacy (tumor size),8226 myeloma tumors,more efficacious than NSC 126405
same,effect on normal WBC counts,8226 myeloma tumors; peripheral blood,only a minimal effect
same,apoptosis activity compared to parent compound B,8226 cells,enhanced compared to parent compound B
same,cytotoxicity against RAPTOR-silenced MM cells vs control shSCRAMBLE,RAPTOR-silenced MM cells,significantly decreased cytotoxicity
same,IC50,MM1.S MM cell line,1 µM
same,therapeutic index versus NSC126405,H929,enhanced therapeutic index
same,therapeutic index (IC50 PBLs/IC50 for 8226 cells) compared to compound B,[2],enhanced therapeutic index
same,therapeutic index (IC50 PBLs/IC50 for 8226 cells) compared to compound B,[2]; listed as 3 g,significantly improved therapeutic indices
same,DEPTOR/mTOR binding in MM cells,"DEPTOR/mTOR binding; 0.5 uM, 6 hrs",prevented DEPTOR/mTOR binding
same,binding of DEPTOR to mTOR,DEPTOR/mTOR binding; concentration not given,inhibits binding of DEPTOR to mTOR

# Source: patent US20190330142A1, “INHIBITORS OF MTOR-DEPTOR INTERACTIONS AND METHODS OF USE THEREOF” (The Regents of the University of California, priority 2016, published 2019)
